This passage reports T/C results from PubChem BioAssay AID330 (DTP/NCI, 2004).

This experiment deals with P388 leukemia ip, CD2F1 mice, survival T/C. As to the kind of experiment: NCI In Vivo Anticancer Drug Screen. Data for tumor model P388 Leukemia (intraperitoneal) in CD2F1 (CDF1) mice. The conditions noted are these: endpoint: median survival time, higher = longer survival. Summed up:
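Mice carrying the transplanted tumor received test compound or vehicle. Survival was recorded in each group, and the value is the treated-group measurement divided by that of the vehicle-treated control group.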

Setting [1] is: dose: 50.0 mg/kg/injection, schedule: Q01DX009 (ip), vehicle: saline.
Setting [2] is: dose: 100.0 mg/kg/injection, schedule: Q01DX009 (ip), vehicle: saline.
[3] abbreviates: dose: 200.0 mg/kg/injection, schedule: Q01DX009 (ip), vehicle: saline.
Setting [4] is: dose: 50.0 mg/kg/injection, schedule: Q01DX005 (ip), vehicle: saline with Tween-80.
Setting [5] is: dose: 100.0 mg/kg/injection, schedule: Q01DX005 (ip), vehicle: saline with Tween-80.
Setting [6] is: dose: 200.0 mg/kg/injection, schedule: Q01DX005 (ip), vehicle: saline with Tween-80.
The mark [7] stands for this setting: dose: 50.0 mg/kg/injection, schedule: Q01DX005 (ip), vehicle: saline.
Setting [8] is: dose: 100.0 mg/kg/injection, schedule: Q01DX005 (ip), vehicle: saline.
Setting [9] is: dose: 100.0 mg/kg/injection, schedule: Q04DX002 (ip), vehicle: saline with Tween-80.
[10] abbreviates: dose: 50.0 mg/kg/injection, schedule: Q01DX009 (ip), vehicle: saline with Tween-80.
Where [11] appears, read: dose: 100.0 mg/kg/injection, schedule: Q01DX009 (ip), vehicle: saline with Tween-80.
Setting [12] is: dose: 200.0 mg/kg/injection, schedule: Q01DX009 (ip), vehicle: saline with Tween-80.
[13] abbreviates: dose: 50.0 mg/kg/injection, schedule: Q01DX005 (ip), vehicle: Klucel (hydroxypropylcellulose) (HPC).
Where [14] appears, read: dose: 100.0 mg/kg/injection, schedule: Q01DX005 (ip), vehicle: Klucel (hydroxypropylcellulose) (HPC).
Setting [15] is: dose: 12.5 mg/kg/injection, schedule: Q01DX009 (ip), vehicle: other.
Setting [16] is: dose: 25.0 mg/kg/injection, schedule: Q01DX009 (ip), vehicle: other.
Where [17] appears, read: dose: 100.0 mg/kg/injection, schedule: Q01DX009 (ip), vehicle: other.

“And” between values parts separate entries of the source, which are not always exact repeats. Equal entries are not always repeated. Toxic doses and inconclusive results are not listed.

On to `N#Cc1ccc(CC(O)(c2ccccc2)c2ccccc2)cc1`, for which the T/C reads like this: under setting [1], 99 % of control; under setting [2], 101 % of control; under setting [3], 95 % of control; (dose: 400.0 mg/kg/injection, schedule: Q01DX009 (ip), vehicle: saline) 87 % of control.

Regarding `CN1CCN(CN2C(=O)C3C4C=CC(C3C2=O)C2C(=O)N(CN3CCN(C)CC3)C(=O)C42)CC1` (centres undefined), the T/C is 108 % of control (dose: 12.5 mg/kg/injection, schedule: Q01DX009 (ip), vehicle: saline); 105 % of control (dose: 25.0 mg/kg/injection, schedule: Q01DX009 (ip), vehicle: saline); 108 % of control under setting [1]; 113 % of control under setting [2]; 122 % of control under setting [3].

On to `COc1cc(NC(C)CCCN)c2nc(C)ccc2c1Oc1ccc(F)cc1` (centres undefined), for which the T/C is, setting by setting: (dose: 12.5 mg/kg/injection, schedule: Q01DX009 (ip), vehicle: water) 109 % of control; (dose: 25.0 mg/kg/injection, schedule: Q01DX009 (ip), vehicle: water) 92 % of control.

As to `O=C(S)c1ccc(Cl)c(Cl)c1`, the T/C reads like this: under setting [4], 90 % of control; under setting [5], 87 % of control; under setting [6], 92 % of control.

Take `COc1cccc2cc(-n3nnc4cc([N+](=O)[O-])ccc43)c(=O)oc12`: the T/C is, setting by setting: (dose: 12.5 mg/kg/injection, schedule: Q01DX005 (ip), vehicle: saline with Tween-80) 95 % of control; (dose: 25.0 mg/kg/injection, schedule: Q01DX005 (ip), vehicle: saline with Tween-80) 93 % of control; under setting [4], 92 % of control and 95 % of control; under setting [5], 97 % of control; under setting [6], 98 % of control.

With `Cc1cc(C)c(S(=O)(=O)Sc2nnnn2-c2ccccc2)c(C)c1`, the T/C reads like this: (dose: 50.0 mg/kg/injection, schedule: Q01DX009 (ip), vehicle: Klucel (hydroxypropylcellulose) (HPC)) 100 % of control; (dose: 100.0 mg/kg/injection, schedule: Q01DX009 (ip), vehicle: Klucel (hydroxypropylcellulose) (HPC)) 105 % of control; (dose: 200.0 mg/kg/injection, schedule: Q01DX009 (ip), vehicle: Klucel (hydroxypropylcellulose) (HPC)) 95 % of control.

As to `OCCOCCSc1ccccn1`, the T/C was 109 % of control under setting [7]; 111 % of control under setting [8]; 111 % of control (dose: 200.0 mg/kg/injection, schedule: Q01DX005 (ip), vehicle: saline).

Take `Cn1c(=O)ccc2ccccc21`: the T/C was 103 % of control (dose: 25.0 mg/kg/injection, schedule: Q04DX002 (ip), vehicle: saline with Tween-80); 100 % of control (dose: 50.0 mg/kg/injection, schedule: Q04DX002 (ip), vehicle: saline with Tween-80); 108 % of control (dose: 50.0 mg/kg/injection, schedule: Q04DX003 (ip), vehicle: saline); 108 % of control under setting [9]; 104 % of control and 113 % of control (dose: 100.0 mg/kg/injection, schedule: Q04DX003 (ip), vehicle: saline).

Take `O=C(CC(=O)N1CCN(c2ccccn2)CC1)N1CCN(c2ccccn2)CC1`: the T/C is, setting by setting: under setting [1], 101 % of control; under setting [2], 102 % of control.

For the compound `CCCCCCCC/C=C\CCCCCCCCCCCC(=O)OCCN(CCOC(=O)CCCCCCCCCCC/C=C\CCCCCCCC)C(=O)c1ccccc1`, the T/C was 106 % of control under setting [10], 116 % of control under setting [11] and 116 % of control under setting [12].

In the case of `CN(C)c1ccc(N=Nc2ccc3c4c(cccc24)-c2ccccc2-3)cc1`, the T/C is, setting by setting: under setting [10], 104 % of control; under setting [11], 96 % of control; under setting [12], 115 % of control.

Regarding `Cc1ccc(S(=O)(=O)SSN2CCOCC2)cc1`, the T/C under setting [4] was 103 % of control, the T/C under setting [5] was 100 % of control and the T/C under setting [6] is 100 % of control.

As to `Cc1c(NC(=O)CCCl)c(=O)oc2c(C)c3occc(=O)c3cc12`, the T/C is, setting by setting: (dose: 100.0 mg/kg/injection, schedule: Q01DX001 (ip), vehicle: saline with Tween-80) 100 % of control; (dose: 200.0 mg/kg/injection, schedule: Q01DX001 (ip), vehicle: saline with Tween-80) 99 % of control; (dose: 400.0 mg/kg/injection, schedule: Q01DX001 (ip), vehicle: saline with Tween-80) 90 % of control.

`CC1CC(C)/C(=N/NC(N)=O)C(C(O)CC2CCC(=O)NC2=O)C1` (centres undefined): the T/C was 100 % of control under setting [4], 115 % of control under setting [5] and 115 % of control under setting [6].

Consider `OC1(c2ccccc2)c2ccccc2-c2ccccc21`, for which the T/C is 109 % of control (dose: 100.0 mg/kg/injection, schedule: Q04DX003 (ip), vehicle: saline with Tween-80); 109 % of control (dose: 200.0 mg/kg/injection, schedule: Q04DX003 (ip), vehicle: saline with Tween-80); 104 % of control (dose: 400.0 mg/kg/injection, schedule: Q04DX003 (ip), vehicle: saline with Tween-80).

As to `Nc1ncnc2c1ncn2C1OCC(O)C1O` (centres undefined), the T/C runs as follows: (dose: 50.0 mg/kg/injection, schedule: Q01DX009 (ip), vehicle: suspension in saline) 119 % of control; (dose: 100.0 mg/kg/injection, schedule: Q01DX009 (ip), vehicle: suspension in saline) 112 % of control.

With `CN1N=Nc2ccccc2C1O` (centres undefined), the T/C is 92 % of control (dose: 25.0 mg/kg/injection, schedule: Q01DX005 (ip), vehicle: Klucel (hydroxypropylcellulose) (HPC)); 95 % of control under setting [13]; 116 % of control under setting [14].

For `O=C(c1ccccc1)c1ccc[n+](Cc2ccccc2)c1`, the T/C was 100 % of control (dose: 25.0 mg/kg/injection, schedule: Q01DX005 (ip), vehicle: saline); 111 % of control under setting [7]; 109 % of control under setting [8].

As to `COc1ccc2c(c1OC)CN(C)[C@]13ON(c4ccccc4)[C@H](C[C@]21C)c1cc2c(cc13)OCO2`, the T/C reads like this: under setting [9], 98 % of control; (dose: 200.0 mg/kg/injection, schedule: Q04DX002 (ip), vehicle: saline with Tween-80) 88 % of control; (dose: 400.0 mg/kg/injection, schedule: Q04DX002 (ip), vehicle: saline with Tween-80) 95 % of control.

For `CCC(C)SSc1ccccc1C(=O)Nc1ccc(Cl)cc1` (centres undefined), the T/C is 95 % of control (dose: 60.0 mg/kg/injection, schedule: Q01DX005 (ip), vehicle: saline with Tween-80); 97 % of control (dose: 120.0 mg/kg/injection, schedule: Q01DX005 (ip), vehicle: saline with Tween-80); 99 % of control (dose: 240.0 mg/kg/injection, schedule: Q01DX005 (ip), vehicle: saline with Tween-80).

For `COc1cc2nc3cc([N+](=O)[O-])ccc3c(Cl)c2cc1OC`, the T/C under setting [4] was 99 % of control, the T/C under setting [5] is 101 % of control and the T/C under setting [6] was 89 % of control.

Consider `Cc1cc(C)c(S(=O)(=O)N/N=C/C(=O)O)c(C)c1`, for which the T/C was 112 % of control and 117 % of control under setting [15]; 122 % of control under setting [16]; 154 % of control under setting [17].

Take `CCC(C)C(NC(=O)C(Cl)Cl)C(=O)O` (centres undefined): the T/C by setting is: under setting [13], 96 % of control; under setting [14], 96 % of control; (dose: 200.0 mg/kg/injection, schedule: Q01DX005 (ip), vehicle: Klucel (hydroxypropylcellulose) (HPC)) 99 % of control.

Regarding `CCOC(=O)C(C)(C)CN(CCCN(C)C)CC(C)(C)C(=O)OCC`, the T/C under setting [10] was 105 % of control and the T/C under setting [11] was 115 % of control.

With `COC1C/C(=N\O)C2OC(c3ccccc3)OCC2O1` (centres undefined), the T/C is 96 % of control (dose: 1.56 mg/kg/injection, schedule: Q01DX009 (ip), vehicle: other); 104 % of control (dose: 3.13 mg/kg/injection, schedule: Q01DX009 (ip), vehicle: other); 106 % of control (dose: 6.25 mg/kg/injection, schedule: Q01DX009 (ip), vehicle: other); 92 % of control under setting [15]; 101 % of control and 94 % of control under setting [16]; 99 % of control (dose: 50.0 mg/kg/injection, schedule: Q01DX009 (ip), vehicle: other). Besides, the T/C was 100 % of control under setting [17]; 98 % of control (dose: 200.0 mg/kg/injection, schedule: Q01DX009 (ip), vehicle: other); 100 % of control (dose: 400.0 mg/kg/injection, schedule: Q01DX009 (ip), vehicle: other).
